Measurements: patent US8901133B2, “Heterocyclic compounds and uses thereof” (Infinity Pharmaceuticals, Inc., priority 2010, dated 2014)

Experiments:
PI3Kβ = biological target: T1, PI3Kβ (Homo sapiens, UniProt P42338); experiment: PI3 Kinase HTRF assay, PI3Kβ; format: biochemical; settings: 10 μM PIP2, 10 μM ATP; read-out: PI3K β IC50
T1 construct: purchased Millipore Corporation 14-603-K
How it was run: (§1)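 Enzyme 0.25-0.3 ug/ml + 10 uM PIP2 + compound (2% DMSO), 15 min RT; add ATP to 10 μM, 1 h RT; stop, add detection mix, 1 h RT; TR-FRET read. IC50 by nonlinear regression.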

PI3Kγ = biological target: T2, PI3Kγ (Homo sapiens, UniProt P48736); experiment: PI3 Kinase HTRF assay, PI3Kγ; format: biochemical; settings: 10 μM PIP2, 10 μM ATP; read-out: PI3K γ IC50
T2 construct: purchased Millipore Corporation 14-558-K
How it was run: as §1

Balb/c splenic B cells = experiment: B cell activation and proliferation assay (Alamar Blue); format: cell-based; settings: Mus musculus, read-out: B cell prolif. IC50
Protocol: The ability of one or more subject compounds to inhibit B cell activation and proliferation is determined according to standard procedures known in the art. For example, an in vitro cellular proliferation assay is established that measures the metabolic activity of live cells. The assay is performed in a 96 well microtiter plate using Alamar Blue reduction. Balb/c splenic B cells are purified over a Ficoll-Paque™ PLUS gradient followed by magnetic cell separation using a MACS B cell Isolation Kit (Miletenyi). Cells are plated in 90 ul at 50,000 cells/well in B Cell Media (RPMI+10% FBS+Penn/Strep+50 uM bME+5 mM HEPES). A compound disclosed herein is diluted in B Cell Media and added in a 10 μl volume. Plates are incubated for 30 min at 37 C and 5% CO2 (0.2% DMSO final concentration). A 50 μl B cell stimulation cocktail is then added containing either 10 ug/ml LPS or 5 ug/ml F(ab′)2 Donkey anti-mouse IgM plus 2 ng/ml recombinant mouse IL4 in B Cell Media. Plates are incubated for 72 hours at 37° C. and 5% CO2. A volume of 15 μl of Alamar Blue reagent is added to each well and plates are incubated for 5 hours at 37 C and 5% CO2. Alamar Blue fluoresce is read at 560Ex/590Em, and IC50 or EC50 values are calculated using GraphPad Prism 5.

PI3Kδ = biological target: T3, PI3Kδ (Homo sapiens, UniProt O00329); experiment: PI3 Kinase HTRF assay, PI3Kδ; format: biochemical; settings: 10 μM PIP2, 10 μM ATP; read-out: PI3K δ IC50
T3 construct: purchased Millipore Corporation 14-604-K
How it was run: as §1

PI3Kα = biological target: T4, PI3Kα (Homo sapiens, UniProt P42336); experiment: PI3 Kinase HTRF assay, PI3Kα; format: biochemical; settings: 10 μM PIP2, 10 μM ATP; read-out: PI3K α IC50
T4 construct: purchased Millipore Corporation 14-602-K
How it was run: as §1

T1 sequence (P42338 whole entry): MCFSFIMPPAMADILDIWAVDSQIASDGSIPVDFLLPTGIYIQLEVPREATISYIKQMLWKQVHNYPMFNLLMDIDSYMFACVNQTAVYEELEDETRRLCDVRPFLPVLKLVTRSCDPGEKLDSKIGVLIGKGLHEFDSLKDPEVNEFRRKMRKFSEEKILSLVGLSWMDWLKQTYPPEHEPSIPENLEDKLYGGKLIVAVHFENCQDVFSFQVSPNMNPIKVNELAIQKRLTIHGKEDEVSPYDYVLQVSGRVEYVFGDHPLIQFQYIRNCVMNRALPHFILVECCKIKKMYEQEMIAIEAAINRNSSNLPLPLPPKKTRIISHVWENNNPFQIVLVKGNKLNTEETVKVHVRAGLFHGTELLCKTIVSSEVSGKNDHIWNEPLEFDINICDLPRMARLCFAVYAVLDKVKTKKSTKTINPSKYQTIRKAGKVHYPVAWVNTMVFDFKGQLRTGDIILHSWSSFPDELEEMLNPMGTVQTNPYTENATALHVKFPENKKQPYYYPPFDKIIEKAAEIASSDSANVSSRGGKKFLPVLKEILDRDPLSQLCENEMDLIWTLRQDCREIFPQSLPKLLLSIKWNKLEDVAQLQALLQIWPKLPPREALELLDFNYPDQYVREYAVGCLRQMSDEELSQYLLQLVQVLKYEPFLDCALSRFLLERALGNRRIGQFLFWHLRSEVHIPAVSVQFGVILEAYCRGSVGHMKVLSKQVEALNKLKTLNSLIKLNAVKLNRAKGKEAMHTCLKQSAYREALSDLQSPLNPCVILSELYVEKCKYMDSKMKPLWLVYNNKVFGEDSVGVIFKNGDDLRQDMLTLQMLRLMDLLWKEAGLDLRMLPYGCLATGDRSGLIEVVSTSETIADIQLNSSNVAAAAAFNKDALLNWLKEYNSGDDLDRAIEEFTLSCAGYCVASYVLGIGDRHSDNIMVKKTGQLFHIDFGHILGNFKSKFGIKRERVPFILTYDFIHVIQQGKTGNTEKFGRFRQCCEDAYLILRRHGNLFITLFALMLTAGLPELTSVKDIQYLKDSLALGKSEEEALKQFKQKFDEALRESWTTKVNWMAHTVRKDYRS
T1 sequence (P27986 whole entry partner): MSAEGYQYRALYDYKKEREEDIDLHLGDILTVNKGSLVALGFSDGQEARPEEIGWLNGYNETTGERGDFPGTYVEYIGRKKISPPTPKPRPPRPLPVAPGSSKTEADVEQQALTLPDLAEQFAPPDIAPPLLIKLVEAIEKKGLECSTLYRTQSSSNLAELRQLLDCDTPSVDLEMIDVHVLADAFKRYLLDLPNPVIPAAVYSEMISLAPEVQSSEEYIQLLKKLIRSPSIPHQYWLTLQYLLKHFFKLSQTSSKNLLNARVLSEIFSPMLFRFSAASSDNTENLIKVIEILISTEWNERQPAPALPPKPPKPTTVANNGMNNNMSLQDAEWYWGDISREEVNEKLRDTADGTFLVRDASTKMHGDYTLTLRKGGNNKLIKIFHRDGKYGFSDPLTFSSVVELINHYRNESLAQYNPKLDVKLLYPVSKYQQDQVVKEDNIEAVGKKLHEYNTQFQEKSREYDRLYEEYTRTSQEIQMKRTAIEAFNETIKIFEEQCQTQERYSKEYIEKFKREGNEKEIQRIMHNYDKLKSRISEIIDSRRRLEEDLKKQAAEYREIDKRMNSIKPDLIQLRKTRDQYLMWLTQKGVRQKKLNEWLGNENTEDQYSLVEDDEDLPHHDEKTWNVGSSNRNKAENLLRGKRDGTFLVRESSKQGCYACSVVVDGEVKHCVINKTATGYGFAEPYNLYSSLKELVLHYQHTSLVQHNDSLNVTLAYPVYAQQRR
T3 sequence (O00329 whole entry): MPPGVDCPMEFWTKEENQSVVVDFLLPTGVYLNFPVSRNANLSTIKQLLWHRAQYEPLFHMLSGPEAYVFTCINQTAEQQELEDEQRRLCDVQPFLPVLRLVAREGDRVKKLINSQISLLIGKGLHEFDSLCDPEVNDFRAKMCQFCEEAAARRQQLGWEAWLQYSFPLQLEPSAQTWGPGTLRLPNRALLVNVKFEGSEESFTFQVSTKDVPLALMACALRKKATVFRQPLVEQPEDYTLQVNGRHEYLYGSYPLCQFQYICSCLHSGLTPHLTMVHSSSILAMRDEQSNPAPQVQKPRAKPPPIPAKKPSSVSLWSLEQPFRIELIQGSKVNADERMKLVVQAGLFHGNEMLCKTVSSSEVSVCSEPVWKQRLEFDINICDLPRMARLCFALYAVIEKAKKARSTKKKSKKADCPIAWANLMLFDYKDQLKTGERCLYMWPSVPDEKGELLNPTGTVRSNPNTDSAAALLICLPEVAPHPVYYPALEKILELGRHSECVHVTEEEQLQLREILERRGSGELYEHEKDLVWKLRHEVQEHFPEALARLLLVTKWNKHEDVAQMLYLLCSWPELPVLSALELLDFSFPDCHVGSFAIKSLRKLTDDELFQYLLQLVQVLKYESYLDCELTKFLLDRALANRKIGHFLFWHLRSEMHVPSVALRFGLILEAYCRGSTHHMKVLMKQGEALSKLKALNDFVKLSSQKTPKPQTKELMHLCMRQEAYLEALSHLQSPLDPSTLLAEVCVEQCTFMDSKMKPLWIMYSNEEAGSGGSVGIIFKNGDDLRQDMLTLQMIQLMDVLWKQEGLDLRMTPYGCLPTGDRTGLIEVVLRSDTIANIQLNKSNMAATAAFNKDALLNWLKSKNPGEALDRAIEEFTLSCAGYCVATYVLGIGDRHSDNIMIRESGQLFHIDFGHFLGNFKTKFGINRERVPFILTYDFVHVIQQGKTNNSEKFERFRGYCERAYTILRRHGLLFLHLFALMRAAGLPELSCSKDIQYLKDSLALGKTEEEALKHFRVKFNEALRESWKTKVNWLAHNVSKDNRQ
T3 sequence (P27986 whole entry partner): as the sequence (P27986 whole entry partner) above
T2 sequence (P48736 whole entry): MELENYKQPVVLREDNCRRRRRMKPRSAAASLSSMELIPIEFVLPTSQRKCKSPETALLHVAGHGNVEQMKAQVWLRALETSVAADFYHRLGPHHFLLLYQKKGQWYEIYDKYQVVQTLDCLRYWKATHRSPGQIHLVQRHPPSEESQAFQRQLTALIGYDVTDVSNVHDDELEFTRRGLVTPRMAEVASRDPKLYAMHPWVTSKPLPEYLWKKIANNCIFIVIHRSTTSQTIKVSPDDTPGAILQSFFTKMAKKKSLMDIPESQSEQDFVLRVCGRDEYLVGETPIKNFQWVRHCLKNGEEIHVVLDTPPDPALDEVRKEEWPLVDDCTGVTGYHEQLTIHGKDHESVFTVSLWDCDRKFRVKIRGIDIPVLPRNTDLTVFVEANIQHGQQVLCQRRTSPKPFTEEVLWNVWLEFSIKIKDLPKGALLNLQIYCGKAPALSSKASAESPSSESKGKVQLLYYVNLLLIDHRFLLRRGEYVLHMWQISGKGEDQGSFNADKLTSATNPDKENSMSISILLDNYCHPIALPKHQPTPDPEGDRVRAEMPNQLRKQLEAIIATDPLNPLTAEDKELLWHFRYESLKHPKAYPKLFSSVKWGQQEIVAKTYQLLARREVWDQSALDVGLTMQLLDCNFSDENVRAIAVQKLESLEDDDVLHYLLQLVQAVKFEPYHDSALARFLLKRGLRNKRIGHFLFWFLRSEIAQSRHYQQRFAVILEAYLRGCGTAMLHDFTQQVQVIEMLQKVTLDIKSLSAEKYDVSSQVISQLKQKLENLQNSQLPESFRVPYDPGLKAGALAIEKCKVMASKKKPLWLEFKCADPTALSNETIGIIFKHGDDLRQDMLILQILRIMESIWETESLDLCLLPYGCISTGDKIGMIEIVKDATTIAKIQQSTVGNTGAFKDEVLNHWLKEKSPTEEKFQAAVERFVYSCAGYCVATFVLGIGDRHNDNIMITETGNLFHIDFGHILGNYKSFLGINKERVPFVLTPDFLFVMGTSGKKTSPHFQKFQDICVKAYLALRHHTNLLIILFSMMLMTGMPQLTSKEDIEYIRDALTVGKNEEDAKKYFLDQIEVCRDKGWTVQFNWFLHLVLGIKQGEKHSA
T4 sequence (P42336 whole entry): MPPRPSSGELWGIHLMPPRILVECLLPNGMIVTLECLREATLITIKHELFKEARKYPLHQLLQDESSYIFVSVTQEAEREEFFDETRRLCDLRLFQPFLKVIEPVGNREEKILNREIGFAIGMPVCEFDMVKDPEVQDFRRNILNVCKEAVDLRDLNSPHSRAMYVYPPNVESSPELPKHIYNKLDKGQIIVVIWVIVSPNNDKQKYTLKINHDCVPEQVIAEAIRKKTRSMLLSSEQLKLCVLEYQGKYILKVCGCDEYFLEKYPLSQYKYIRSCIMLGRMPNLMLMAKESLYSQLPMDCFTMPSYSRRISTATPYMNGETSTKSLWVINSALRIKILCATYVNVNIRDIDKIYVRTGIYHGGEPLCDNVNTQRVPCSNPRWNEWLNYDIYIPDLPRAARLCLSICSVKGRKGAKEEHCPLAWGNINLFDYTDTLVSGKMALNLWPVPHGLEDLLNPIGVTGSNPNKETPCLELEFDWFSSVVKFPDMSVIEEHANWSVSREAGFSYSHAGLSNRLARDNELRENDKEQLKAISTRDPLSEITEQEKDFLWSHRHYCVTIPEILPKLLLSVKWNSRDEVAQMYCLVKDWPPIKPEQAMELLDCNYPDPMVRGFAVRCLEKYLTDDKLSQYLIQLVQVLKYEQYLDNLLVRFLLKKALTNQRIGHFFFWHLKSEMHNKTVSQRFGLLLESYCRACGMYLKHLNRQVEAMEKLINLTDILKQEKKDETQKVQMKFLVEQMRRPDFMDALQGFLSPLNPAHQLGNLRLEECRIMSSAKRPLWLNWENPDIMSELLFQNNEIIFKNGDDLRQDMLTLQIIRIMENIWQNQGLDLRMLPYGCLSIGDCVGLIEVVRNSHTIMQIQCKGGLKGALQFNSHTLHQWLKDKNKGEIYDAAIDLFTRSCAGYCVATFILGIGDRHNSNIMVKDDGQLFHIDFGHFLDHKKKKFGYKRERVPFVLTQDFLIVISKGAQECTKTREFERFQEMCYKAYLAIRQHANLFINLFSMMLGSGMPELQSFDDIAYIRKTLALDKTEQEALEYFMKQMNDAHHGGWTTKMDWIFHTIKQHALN
T4 sequence (P27986 whole entry partner): as the sequence (P27986 whole entry partner) above

SMILES | IC50 (PI3Kβ) [nM] | IC50 (PI3Kγ) [nM] | IC50 (PI3Kδ) [nM] | IC50 (PI3Kα) [nM] | IC50 (Balb/c splenic B cells) [nM]
C[C@H](Nc1ncnc2[nH]cnc12)c1cc2c(F)ccc(Cl)c2c(CCN2CCOCC2)n1 [Compound 68] | > 10000 | < 10000 | < 100 | < 10000 | < 100
C[C@H](Nc1ccnn2ccnc12)c1cc2ccccc2c(CCN2CCOCC2)n1 [Compound 77, (S)—N-(1-(1-(2-morpholinoethyl)isoquinolin-3-yl)ethyl)imidazo[1,2-b]pyridazin-8-amine] | > 10000 | > 10000 | < 100 | > 10000 | < 100
C[C@H](Nc1ncnc2[nH]cnc12)c1nc(CCN2CCOCC2)c2c(Cl)cccc2c1F [Compound 85, (S)—N-(1-(8-chloro-4-fluoro-1-(2-morpholinoethyl)isoquinolin-3-yl)ethyl)-9H-purin-6-amine] | > 10000 | > 10000 | < 1000 | > 10000 | < 1000
CC(C)N1CCC(Oc2nc([C@H](C)Nc3ncnc4cccnc34)cc3cccc(Cl)c23)CC1 [Compound 108] | > 10000 | < 100 | < 100 | < 10000 | < 1000
C[C@H](Nc1ncnc2ccccc12)c1cc2cccc(Cl)c2c(C(=O)N2CCOCC2)n1 [Compound 119] | > 10000 | < 1000 | < 100 | < 10000 | < 1000
C[C@H](Nc1ccnc2ccnn12)c1cc2cccc(Cl)c2c(C(=O)N2CCOCC2)n1 [Compound 120] | < 10000 | < 1000 | < 100 | < 10000 | < 100
CC(C)N1CCC(Oc2nc([C@H](C)Nc3ncnc4scnc34)cc3cccc(Cl)c23)CC1 [Compound 122] | < 10000 | < 10000 | < 100 | < 10000 | < 1000
C[C@H](Nc1ncnc2cccnc12)c1cc2cccc(Cl)c2c(C(=O)N2C3CCC2COC3)n1 [Compound 123] | < 10000 | < 1000 | < 100 | < 10000 | < 100
C[C@H](Nc1ncnc2scnc12)c1cc2cccc(Cl)c2c(C(=O)N2C3CCC2COC3)n1 [Compound 124] | < 1000 | < 1000 | < 100 | < 10000 | < 100
C[C@H](Nc1ccnc2ccnn12)c1cc2cccc(Cl)c2c(C(=O)N2C3CCC2COC3)n1 [Compound 125] | < 10000 | < 10000 | < 100 | > 10000 | < 100
C[C@H](Nc1ncnc2[nH]cnc12)c1cc2cccc(Cl)c2c(SCCN2CCCC2)n1 [Compound 135] | < 10000 | > 10000 | < 100 | > 10000 | < 1000
C[C@H](Nc1ncnc2[nH]cnc12)c1cc2cccc(Cl)c2c([S+]([O-])CCN2CCCC2)n1 (some centres unmarked) [Compound 136] | < 10000 | < 10000 | < 100 | < 10000 | < 100
C[C@H](Nc1ncnc2scnc12)c1cc2cccc(Cl)c2c(C(=O)NC2CCOCC2)n1 [Compound 144] | > 10000 | < 10000 | < 100 | > 10000 | < 100
Cc1cccc2cc([C@H](C)Nc3ncnc4[nH]cnc34)nc(OCCN3CCCC3)c12 [Compound 145] | < 10000 | > 10000 | < 100 | > 10000 | < 100
Cc1cccc2cc([C@H](C)Nc3ncnc4[nH]cnc34)nc(CCN3CCOCC3)c12 [Compound 146] | < 10000 | < 10000 | < 100 | > 10000 | < 100
Cc1cccc2cc([C@H](C)Nc3ncnc4[nH]cnc34)nc(C(=O)N3C4CCC3COC4)c12 [Compound 149] | > 10000 | < 10000 | < 100 | > 10000 | < 100
C[C@H](Nc1ncnc2[nH]cnc12)c1cc2cccc(-c3cnn(C)c3)c2c(OCCN2CCCC2)n1 [Compound 151] | < 10000 | < 10000 | < 100 | > 10000 | < 100
CC(C)N1CCC(Oc2nc([C@H](C)Nc3ncnc4[nH]cnc34)cc3cccc(-c4cnn(C)c4)c23)CC1 [Compound 158] | < 10000 | > 10000 | < 100 | > 10000 | < 1000
CC(C)N1CCC(Oc2nc([C@H](C)Nc3ncnc4cccnc34)cc3cccc(-c4cnn(C)c4)c23)CC1 [Compound 160] | > 10000 | < 10000 | < 100 | < 10000 | < 100
Cc1cccc2cc([C@H](C)Nc3ncnc4cccnc34)nc(OCCN3CCCC3)c12 [Compound 162] | < 10000 | < 1000 | < 100 | < 1000 | < 100
Cc1cccc2cc([C@H](C)Nc3ncnc4cccnc34)nc(OC3CCN(C(C)C)CC3)c12 [Compound 163] | > 10000 | < 10000 | < 100 | < 10000 | < 100

More lines, main results first:

IC50 (PI3Kβ) [nM] | IC50 (PI3Kγ) [nM] | IC50 (PI3Kδ) [nM] | IC50 (PI3Kα) [nM] | SMILES | IC50 (Balb/c splenic B cells) [nM]
< 10000 | > 10000 | < 100 | > 10000 | Cc1cccc2cc([C@H](C)Nc3ncnc4[nH]cnc34)nc(OC3CCN(C(C)C)CC3)c12 [Compound 57] | < 1000
< 1000 | < 10000 | < 100 | < 10000 | C[C@H](Nc1ccnc2ccnn12)c1cc2cccc(Cl)c2c(CCN2CCOCC2)n1 [Compound 73] | < 100
< 10000 | < 10000 | < 100 | < 10000 | C[C@H](Nc1ncnc2ccccc12)c1cc2cccc(Cl)c2c(CCN2CCOCC2)n1 [Compound 74] | < 1000
< 1000 | < 1000 | < 100 | < 1000 | C[C@H](Nc1ncnc2cccnc12)c1cc2cccc(Cl)c2c(CCN2CCOCC2)n1 [Compound 75] | < 100
< 10000 | < 10000 | < 100 | < 10000 | CC(C)N1CCN(c2nc([C@H](C)Nc3ncnc4[nH]cnc34)cc3cccc(Cl)c23)CC1 [Compound 90] | < 100
< 10000 | < 10000 | < 100 | < 10000 | CCN1CCN(c2nc([C@H](C)Nc3ncnc4[nH]cnc34)cc3cccc(Cl)c23)CC1 [Compound 91] | < 100
< 10000 | < 10000 | < 100 | < 10000 | Cc1cccc2cc([C@H](C)Nc3ncnc4[nH]cnc34)nc(OCC3CCN(C)CC3)c12 [Compound 92] | < 100
< 1000 | < 1000 | < 100 | < 10000 | C[C@H](Nc1ncnc2[nH]cnc12)c1cc2cccc(Cl)c2c(SCCN2CCOCC2)n1 [Compound 93, (S)—N-(1-(8-chloro-1-(2-morpholinoethylthio)isoquinolin-3-yl)ethyl)-9H-purin-6-amine] | < 100
< 1000 | < 10000 | < 100 | < 10000 | C[C@H](Nc1ncnc2scnc12)c1cc2cccc(Cl)c2c(N2CCN(C)CC2)n1 [Compound 98] | < 100
< 10000 | < 10000 | < 100 | < 10000 | CC(C)N1CCC(Oc2nc([C@H](C)Nc3ccnc4ccnn34)cc3cccc(Cl)c23)CC1 [Compound 107] | < 100
< 1000 | < 1000 | < 100 | < 10000 | C[C@H](Nc1ncnc2scnc12)c1cc2cccc(Cl)c2c(C(=O)N2CCOCC2)n1 [Compound 116] | < 100
< 1000 | < 1000 | < 100 | < 1000 | C[C@H](Nc1ncnc2scnc12)c1cc2cccc(Cl)c2c(OCCN2CCCC2)n1 [Compound 121] | < 100
< 1000 | < 1000 | < 100 | < 10000 | C[C@H](Nc1ncnc2[nH]cnc12)c1cc2cccc(Cl)c2c([S+]([O-])CCN2CCOCC2)n1 (some centres unmarked) [Compound 129] | < 1000
